From publication PMC3436176 (The Journal of Biological Chemistry, 2012)

Legend:
GPVI on platelets = test: Flow cytometric GPVI quantitation; type: cell-based, human; conditions: dimers versus resting platelets
[1] = test system: GPVI dimer on washed platelets; test: Time and agonist concentration dependence of dimer increase; type: cell-based, human
GPVI-Fc2 (GPVI dimer) = target: T1, GPVI-Fc2 (GPVI dimer) (Homo sapiens, UniProt Q9HCN6); test: ELISA: GPVI dimer binding to immobilized collagenous substrates; conditions: for Kd (monomer)/Kd (dimer): binding to collagenous substrates
T1 sequence (Q9HCN6 21-214 limits assumed): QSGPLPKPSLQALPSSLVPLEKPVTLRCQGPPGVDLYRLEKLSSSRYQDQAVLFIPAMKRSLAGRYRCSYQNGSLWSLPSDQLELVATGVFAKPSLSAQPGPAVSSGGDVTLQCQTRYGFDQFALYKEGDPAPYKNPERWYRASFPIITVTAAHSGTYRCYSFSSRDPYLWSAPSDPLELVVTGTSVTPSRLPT

[2] = CRP 5 μg/ml or thrombin 0.2 unit/ml, washed platelets 2.5 × 10^8 cells/ml

Substance | % increase after activation (GPVI on platelets) | time after which dimer levels started to increase [1, 2] | time at which dimer level reaches a maximum [1, 2] | agonist concentration at which dimer level reaches a maximum ([1]; washed platelets 1 × 10^8 cells/ml, FITC-m-Fab-F 100 μg/ml) | Kd (monomer)/Kd (dimer) (GPVI-Fc2 (GPVI dimer)) | Hill coefficient for dimer binding (GPVI-Fc2 (GPVI dimer); mean ± S.E., n = 4-12 as printed)
Thrombin: bovine thrombin (Sigma), platelet agonist | 55% | 30 s | 4 to 5 min | > 0.5 unit/ml | – | –
GPC–(GPP)5–GAOGARGGAGPOGPEGGKGAAGPOGPO(GPP)5–GPC–NH2 [III-30A] | – | – | – | – | 887.0 | –
Collagen type I: Pepsin-treated bovine type I collagen from Koken | – | – | – | – | 194.3 | 1.14 ± 0.07
